# System: Fabry mice
# Assay: Substrate reduction therapy in Fabry mouse model: Gb3 and lyso-Gb3 levels
# Format: in vivo
# Details: male and female Fabry mice treated 4 months from ~8 months old; GZ 452 60 and 120 mg/kg/day, GZ 161 20 mg/kg/day
# Method: In the following experiments, mice dosed with GCS inhibitors at either ˜60 mg/kg/day of (S)-Quinuclidin-3-yl(2-(2-(4-fluorophenyl)thiazol-4-yl)propan-2-yl)carbamate (S)-2-hydroxysuccinate salt (hereinafter “GZ 452”) or ˜300 mg/kg/day of (1R,2R)-Octanoic acid[2-(2′,3′-dihydro-benzo[1,4] dioxin-6′-yl)-2-hydroxy-1-pyrrolidin-1-ylmethyl-ethyl]-amide-L-tartaric acid salt (hereinafter “GZ 638”) as a component of the pelleted food diet provided ad libitum. Lipid analysis was by ESI/MS as described in Marshall et al., PLoS ONE 5:e15033 (2010). As discussed in further detail below, treatment started when the mice were 3, 8 or 12 months of age to test the efficacy at different disease severities. Blood and urine was collected monthly and periodic tissue harvests provided materials to evaluate efficacy of the therapy (Gb3 and lyso-Gb3 levels). […] As further discussed below, the efficacy of SMT was affected by the age of the mice at the start of treatment. Generally, the older the mouse, the higher the levels of Gb3 stored and thus a longer period of treatment was required in order to affect similar therapeutic benefit (see FIG. 4). The experiments and results are described further below.
# In this experiment, Fabry mice were treated with GCS inhibitors in their diet for 4 months starting at 8 months old. […] Age-matched wild-type levels (WT) are also shown. […]
structure (smiles),measurement,value
"CC(C)(NC(=O)OC1CN2CCC1CC2)c1cccc(-c2ccc(F)cc2)c1 (stereo not shown) [GZ 161, Quinuclidin-3-yl(2-(4′-fluoro-[1,1′-biphenyl]-3-yl)propan-2-yl)carbamate]",Gb3 in kidney tissue relative to untreated controls,significantly reduced the amount of Gb3
